Data taken from ChEMBL document CHEMBL1156198 (J Med Chem, 2010).

What was measured:
[1] = Cmax in CD1 mouse at 10 mg/kg, po; type: ADME, organism-based; set-up: dose 10 mg/kg, route oral; conditions: in vivo
[2] = AUC in CD1 mouse plasma at 30 mg/kg, po; type: ADME, organism-based; set-up: dose 30 mg/kg, route oral
[3] = AUC in CD1 mouse brain at 30 mg/kg, po; type: ADME, organism-based; set-up: dose 30 mg/kg, route oral
[4] = Clearance in CD1 mouse; type: ADME, organism-based; conditions: in vivo
[5] = Oral bioavailability in CD1 mouse at 10 mg/kg; type: ADME, organism-based; conditions: in vivo
[6] = Ratio of drug level in plasma to brain of CD1 mouse
[7] = AUC in CD1 mouse at 10 mg/kg, po; type: ADME, organism-based; set-up: dose 10 mg/kg, route oral; conditions: plasma
[8] = Terminal phase volume of distribution in CD1 mouse; type: ADME, organism-based; conditions: in vivo, read-out: Vbeta
[9] = Half life in iv dosed CD1 mouse; type: ADME, organism-based; conditions: in vivo
[10] = AUC in Beagle dog at […], po; type: ADME, organism-based, Canis lupus familiaris; set-up: dose 2.5 mg/kg, route oral; conditions: plasma
[11] = Clearance in Beagle dog; type: ADME, organism-based, Canis lupus familiaris; conditions: in vivo
[12] = AUC in Sprague-Dawley rat at 5 mg/kg, po; type: ADME, organism-based; set-up: dose 5 mg/kg, route oral; conditions: plasma
[13] = Half life in iv dosed Beagle dog; type: ADME, organism-based, Canis lupus familiaris; conditions: in vivo
[14] = Terminal phase volume of distribution in Sprague-Dawley rat; type: ADME, organism-based; conditions: in vivo, read-out: Vbeta
[15] = Terminal phase volume of distribution in Beagle dog; type: ADME, organism-based, Canis lupus familiaris; conditions: in vivo, read-out: Vbeta
[16] = Cmax in Sprague-Dawley rat at 5 mg/kg, po; type: ADME, organism-based; set-up: dose 5 mg/kg, route oral; conditions: in vivo
[17] = Half life in iv dosed cynomolgus monkey; type: ADME, organism-based, Macaca fascicularis; conditions: in vivo
[18] = AUC in cynomolgus monkey at […], po; type: ADME, organism-based, Macaca fascicularis; set-up: dose 2.5 mg/kg, route oral; conditions: plasma
[19] = Oral bioavailability in Sprague-Dawley rat at 5 mg/kg; type: ADME, organism-based; conditions: in vivo
[20] = Terminal phase volume of distribution in cynomolgus monkey; type: ADME, organism-based, Macaca fascicularis; conditions: in vivo, read-out: Vbeta
[21] = Cmax in cynomolgus monkey at […], po; type: ADME, organism-based, Macaca fascicularis; set-up: dose 2.5 mg/kg, route oral; conditions: in vivo
[22] = Clearance in cynomolgus monkey; type: ADME, organism-based, Macaca fascicularis; conditions: in vivo
[23] = Half life in iv dosed Sprague-Dawley rat; type: ADME, organism-based; conditions: in vivo
[24] = Oral bioavailability in cynomolgus monkey at […]; type: ADME, organism-based, Macaca fascicularis; conditions: in vivo
[25] = Oral bioavailability in Beagle dog at […]; type: ADME, organism-based, Canis lupus familiaris; conditions: in vivo
[26] = Cmax in Beagle dog at […], po; type: ADME, organism-based, Canis lupus familiaris; set-up: dose 2.5 mg/kg, route oral; conditions: in vivo
[27] = Clearance in Sprague-Dawley rat; type: ADME, organism-based; conditions: in vivo
[28] = Drug level in mouse B16F10 transplanted TMZ-treated C57BL/6 mouse plasma […] at 25 mg/kg/day, po administered from day 6 to 10 post transplantation measured after 6 hrs of final dose in presence of TMZ; type: ADME, organism-based, C57BL6; set-up: route oral
[29] = Drug level in mouse B16F10 transplanted C57BL/6 mouse plasma at 25 mg/kg/day, po administered from day 6 to 10 post transplantation measured after 6 hrs of final dose; type: ADME, organism-based, C57BL6; set-up: route oral
[30] = Drug level in mouse B16F10 cells transplanted in C57BL/6 mouse at 25 mg/kg/day, po administered from day 6 to 10 post transplantation measured after 6 hrs of final dose; type: ADME, organism-based, C57BL6, B16-F10; set-up: route oral; conditions: B16F10 tumour (neoplasm)

Compound	Cmax [1]	AUC [2]	AUC [3]	clearance [4]	bioavailability [5]	Kp [6]	AUC [7]	Vd [8]	half-life [9]	AUC [10]	clearance [11]	AUC [12]	half-life [13]	Vd [14]	Vd [15]	Cmax [16]	half-life [17]	AUC [18]	bioavailability [19]	Vd [20]	also measured
NC(=O)c1cccc2[nH]c(-c3ccc([C@H]4CCCN4)cc3F)nc12	500 ng/mL	4200 ng·h/mL	1800 ng·h/mL	60 mL/min/kg	36%	2	1000 ng·h/mL	4.6 L/kg	0.9 h												
NC(=O)c1cccc2[nH]c(-c3ccc([C@H]4CCCCN4)cc3F)nc12	300 ng/mL	5800 ng·h/mL	6300 ng·h/mL	122 mL/min/kg	100%		1600 ng·h/mL	15 L/kg	1.4 h												
NC(=O)c1cccc2[nH]c(-c3ccc([C@@H]4CCCCN4)cc3F)nc12	500 ng/mL	9900 ng·h/mL	9100 ng·h/mL	60 mL/min/kg	63%		1700 ng·h/mL	6.6 L/kg	1.3 h	300 ng·h/mL	56.7 mL/min/kg	1800 ng·h/mL	2 h	14 L/kg	9.3 L/kg	200 ng/mL	5 h	750 ng·h/mL	80%	15 L/kg	Cmax [21]: 100 ng/mL; clearance [22]: 36.7 mL/min/kg; half-life [23]: 4.5 h; bioavailability [24]: 61%; bioavailability [25]: 39%; Cmax [26]: 100 ng/mL; clearance [27]: 38.3 mL/min/kg
NC(=O)c1cccc2[nH]c(-c3ccc([C@@H]4CCCN4)cc3F)nc12	600 ng/mL	9800 ng·h/mL	4200 ng·h/mL	48.3 mL/min/kg	36%	2	1200 ng·h/mL	3.3 L/kg	0.8 h	1100 ng·h/mL	28.3 mL/min/kg	1700 ng·h/mL	1.7 h	4.1 L/kg	3.6 L/kg	300 ng/mL	1.8 h	200 ng·h/mL	55%	9.2 L/kg	concentration at 6 h [28]: 380 ng/mL; concentration at 6 h [29]: 220 ng/mL; Cmax [21]: 30 ng/mL; clearance [22]: 68.3 mL/min/kg; half-life [23]: 1.9 h; bioavailability [24]: 34%; concentration at 6 h [30]: 17200 ng/mL; bioavailability [25]: 72%; Cmax [26]: 500 ng/mL; clearance [27]: 28.3 mL/min/kg
